Test results as given in ChEMBL document CHEMBL6127119 (J Med Chem, 2024).
≈ marks a conversion by molar mass, not a printed value.

Key:
Staphylococcus aureus [1] = assay: Antibacterial activity against methicillin-susceptible Staphylococcus aureus incubated for 16 to 24 hrs by CLSI based broth microdilution method; format: functional; conditions: time 16-24 hrs
Staphylococcus aureus [2] = assay: Antibacterial activity against vancomycin-intermediate Staphylococcus aureus incubated for 16 to 24 hrs by CLSI based broth microdilution method; format: functional; conditions: time 16-24 hrs
Enterococcus faecium [3] = assay: Antibacterial activity against vancomycin-resistant Enterococcus faecium harboring VanA phenotype incubated for 16 to 24 hrs by CLSI based broth microdilution method; format: functional; conditions: time 16-24 hrs
Enterococcus faecium [4] = assay: Antibacterial activity against vancomycin-resistant Enterococcus faecium harboring VanM phenotype incubated for 16 to 24 hrs by CLSI based broth microdilution method; format: functional; conditions: time 16-24 hrs
Enterococcus faecium [5] = assay: Antibacterial activity against vancomycin-resistant Enterococcus faecium harboring VanB phenotype incubated for 16 to 24 hrs by CLSI based broth microdilution method; format: functional; conditions: time 16-24 hrs
Escherichia coli [6] = assay: Antibacterial activity against Escherichia coli AB1157 incubated for 16 to 24 hrs by CLSI based broth microdilution method; format: functional; conditions: time 16-24 hrs
Acinetobacter baumannii [7] = assay: Antibacterial activity against Carbapenem-resistant Acinetobacter baumannii clinical isolate incubated for 16 to 24 hrs by CLSI based broth microdilution method; format: functional; conditions: time 16-24 hrs
Klebsiella pneumoniae = assay: Antibacterial activity against Klebsiella pneumoniae clinical isolate incubated for 16 to 24 hrs by CLSI based broth microdilution method; format: functional; conditions: time 16-24 hrs
Pseudomonas aeruginosa = assay: Antibacterial activity against Pseudomonas aeruginosa PAO1 incubated for 16 to 24 hrs by CLSI based broth microdilution method; format: functional; conditions: time 16-24 hrs
Staphylococcus aureus [8] = assay: Potency index, ratio of Vancomycin MIC to test compound MIC for vancomycin-intermediate Staphylococcus aureus incubated for 16 to 24 hrs by CLSI based broth microdilution method; format: functional; conditions: time 16-24 hrs
Enterococcus faecium [9] = assay: Potency index, ratio of Vancomycin MIC to test compound MIC for vancomycin-resistant Enterococcus faecium incubated for 16 to 24 hrs by CLSI based broth microdilution method; format: functional; conditions: time 16-24 hrs
Escherichia coli [10] = assay: Potency index, ratio of Vancomycin MIC to test compound MIC for Escherichia coli […] incubated for 16 to 24 hrs by CLSI based broth microdilution method; format: functional; conditions: time 16-24 hrs
Acinetobacter baumannii [11] = assay: Potency index, ratio of Vancomycin MIC to test compound MIC for Carbapenem-resistant Acinetobacter baumannii clinical isolate incubated for 16 to 24 hrs by CLSI based broth microdilution method; format: functional; conditions: time 16-24 hrs
Staphylococcus aureus [12] = assay: Potency index, ratio of Norvancomycin MIC to test compound MIC for vancomycin-intermediate Staphylococcus aureus incubated for 16 to 24 hrs by CLSI based broth microdilution method; format: functional; conditions: time 16-24 hrs
Enterococcus faecium [13] = assay: Potency index, ratio of Norvancomycin MIC to test compound MIC for vancomycin-resistant Enterococcus faecium incubated for 16 to 24 hrs by CLSI based broth microdilution method; format: functional; conditions: time 16-24 hrs
Escherichia coli [14] = assay: Potency index, ratio of Norvancomycin MIC to test compound MIC for Escherichia coli […] incubated for 16 to 24 hrs by CLSI based broth microdilution method; format: functional; conditions: time 16-24 hrs
Acinetobacter baumannii [15] = assay: Potency index, ratio of Norvancomycin MIC to test compound MIC for Carbapenem-resistant Acinetobacter baumannii clinical isolate incubated for 16 to 24 hrs by CLSI based broth microdilution method; format: functional; conditions: time 16-24 hrs
HEK-293T [16] = assay: Cytotoxicity against HEK293T cells upto […] incubated for 72 hrs by MTT assay; format: toxicity, cell-based; conditions: human
HEK-293T [17] = assay: Cytotoxicity against HEK293T cells at 100 ug/ml incubated for 72 hrs by MTT assay; format: toxicity, cell-based; conditions: human, dose 100 µg/ml
Staphylococcus hominis = assay: Antibacterial activity against methicillin-resistant Staphylococcus hominis clinical isolate incubated for 16 to 24 hrs by CLSI based broth microdilution method; format: functional; conditions: time 16-24 hrs
[18] = tested on: Staphylococcus haemolyticus; assay: Antibacterial activity against methicillin-resistant Staphylococcus haemolyticus clinical isolate incubated for 16 to 24 hrs by CLSI based broth microdilution method; format: functional; conditions: time 16-24 hrs
Staphylococcus aureus [19] = assay: Antibacterial activity against methicillin-resistant Staphylococcus aureus clinical isolate incubated for 16 to 24 hrs by CLSI based broth microdilution method; format: functional; conditions: time 16-24 hrs
Enterococcus faecalis = assay: Antibacterial activity against Enterococcus faecalis clinical isolate incubated for 16 to 24 hrs by CLSI based broth microdilution method; format: functional; conditions: time 16-24 hrs
Enterococcus faecium [20] = assay: Antibacterial activity against vancomycin-resistant Enterococcus faecium harboring VanA phenotype clinical isolate incubated for 16 to 24 hrs by CLSI based broth microdilution method; format: functional; conditions: time 16-24 hrs
[21] = tested on: Staphylococcus epidermidis; assay: Antibacterial activity against methicillin-resistant Staphylococcus epidermidis clinical isolate incubated for 16 to 24 hrs by CLSI based broth microdilution method; format: functional; conditions: time 16-24 hrs
Enterococcus faecium [22] = assay: Antibacterial activity against Enterococcus faecium clinical isolate incubated for 16 to 24 hrs by CLSI based broth microdilution method; format: functional; conditions: time 16-24 hrs

Structure (SMILES)	MIC (Staphylococcus aureus [1]) [µg/mL]	MIC (Staphylococcus aureus [2]) [µg/mL]	MIC (Enterococcus faecium [3]) [µg/mL]	MIC (Enterococcus faecium [4]) [µg/mL]	MIC (Enterococcus faecium [5]) [µg/mL]	MIC (Escherichia coli [6]) [µg/mL]	MIC (Acinetobacter baumannii [7]) [µg/mL]	MIC (Klebsiella pneumoniae) [µg/mL]	MIC (Pseudomonas aeruginosa) [µg/mL]	Ratio (Staphylococcus aureus [8])	Ratio (Enterococcus faecium [9])	Ratio (Escherichia coli [10])	Ratio (Acinetobacter baumannii [11])	Ratio (Staphylococcus aureus [12])	Ratio (Enterococcus faecium [13])	Ratio (Escherichia coli [14])	Ratio (Acinetobacter baumannii [15])	other results
CC(C)C[C@@H](N)C(=O)N[C@H]1C(=O)N[C@@H](CC(N)=O)C(=O)N[C@H]2C(=O)N[C@H]3C(=O)N[C@H](C(=O)N[C@H](C(=O)NCc4ccc(-c5ccccc5CNC(=N)N)cc4)c4cc(O)cc(O)c4-c4cc3ccc4O)[C@H](O)c3ccc(c(Cl)c3)Oc3cc2cc(c3O[C@@H]2O[C@H](CO)[C@@H](O)[C@H](O)[C@H]2O[C@H]2C[C@](C)(N)[C@H](O)[C@H](C)O2)Oc2ccc(cc2Cl)[C@H]1O	≤ 0.063	0.5 (≈ 0.299 µM)	4 (≈ 2.39 µM)	2 (≈ 1.2 µM)	2 (≈ 1.2 µM)	8 (≈ 4.79 µM)	16 (≈ 9.57 µM)	> 128	32 (≈ 19.1 µM)	2	2	2	2	2	2	2	2	
CC(C)C[C@@H](N)C(=O)N[C@H]1C(=O)N[C@@H](CC(N)=O)C(=O)N[C@H]2C(=O)N[C@H]3C(=O)N[C@H](C(=O)N[C@H](C(=O)NCc4ccc(-c5ccc(CCNC(=N)N)cc5)cc4)c4cc(O)cc(O)c4-c4cc3ccc4O)[C@H](O)c3ccc(c(Cl)c3)Oc3cc2cc(c3O[C@@H]2O[C@H](CO)[C@@H](O)[C@H](O)[C@H]2O[C@H]2C[C@](C)(N)[C@H](O)[C@H](C)O2)Oc2ccc(cc2Cl)[C@H]1O	0.125 (≈ 0.0742 µM)	0.5 (≈ 0.297 µM)	4 (≈ 2.37 µM)	2 (≈ 1.19 µM)	4 (≈ 2.37 µM)	8 (≈ 4.75 µM)	64 (≈ 38 µM)	> 128	> 128	2	2	2	2	2	2	2	2	
CN[C@H](CC(C)C)C(=O)N[C@H]1C(=O)N[C@@H](CC(N)=O)C(=O)N[C@H]2C(=O)N[C@H]3C(=O)N[C@H](C(=O)N[C@H](C(=O)NCCCCCCCCN)c4cc(O)cc(O)c4-c4cc3ccc4O)[C@H](O)c3ccc(c(Cl)c3)Oc3cc2cc(c3O[C@@H]2O[C@H](CO)[C@@H](O)[C@H](O)[C@H]2O[C@H]2C[C@](C)(N)[C@H](O)[C@H](C)O2)Oc2ccc(cc2Cl)[C@H]1O	1 (≈ 0.635 µM)	2 (≈ 1.27 µM)	64 (≈ 40.6 µM)	64 (≈ 40.6 µM)	16 (≈ 10.2 µM)	64 (≈ 40.6 µM)	128 (≈ 81.2 µM)	> 128	128 (≈ 81.2 µM)									Activity (HEK-293T [16]): Non-Toxic; Activity (HEK-293T [17]): Non-Toxic
CN[C@H](CC(C)C)C(=O)N[C@H]1C(=O)N[C@@H](CC(N)=O)C(=O)N[C@H]2C(=O)N[C@H]3C(=O)N[C@H](C(=O)N[C@H](C(=O)O)c4cc(O)cc(O)c4-c4cc3ccc4O)[C@H](O)c3ccc(c(Cl)c3)Oc3cc2cc(c3O[C@@H]2O[C@H](CO)[C@@H](O)[C@H](O)[C@H]2O[C@H]2C[C@](C)(N)[C@H](O)[C@H](C)O2)Oc2ccc(cc2Cl)[C@H]1O [VANCOMYCIN]																		MIC (Staphylococcus hominis): 1 µg/mL (≈ 0.69 µM); MIC [18]: 1 µg/mL (≈ 0.69 µM); MIC (Staphylococcus aureus [19]): 0.25 µg/mL (≈ 0.173 µM); MIC (Enterococcus faecalis): ≤ 0.03 µg/mL; MIC (Enterococcus faecium [20]): > 64 µg/mL
CC(C)C[C@@H](N)C(=O)N[C@H]1C(=O)N[C@@H](CC(N)=O)C(=O)N[C@H]2C(=O)N[C@H]3C(=O)N[C@H](C(=O)N[C@H](C(=O)NCc4ccc(-c5cccc(CNC(=N)N)c5)cc4)c4cc(O)cc(O)c4-c4cc3ccc4O)[C@H](O)c3ccc(c(Cl)c3)Oc3cc2cc(c3O[C@@H]2O[C@H](CO)[C@@H](O)[C@H](O)[C@H]2O[C@H]2C[C@](C)(N)[C@H](O)[C@H](C)O2)Oc2ccc(cc2Cl)[C@H]1O	≤ 0.063	0.25 (≈ 0.15 µM)	2 (≈ 1.2 µM)	1 (≈ 0.598 µM)	2 (≈ 1.2 µM)	16 (≈ 9.57 µM)	64 (≈ 38.3 µM)	> 128	128 (≈ 76.6 µM)	2	2	2	2	2	2	2	2	
CN[C@H](CC(C)C)C(=O)N[C@H]1C(=O)N[C@@H](CC(N)=O)C(=O)N[C@H]2C(=O)N[C@H]3C(=O)N[C@H](C(=O)N[C@H](C(=O)NCCc4ccc(-c5ccc(CNC(=N)N)cc5)cc4)c4cc(O)cc(O)c4-c4cc3ccc4O)[C@H](O)c3ccc(c(Cl)c3)Oc3cc2cc(c3O[C@@H]2O[C@H](CO)[C@@H](O)[C@H](O)[C@H]2O[C@H]2C[C@](C)(N)[C@H](O)[C@H](C)O2)Oc2ccc(cc2Cl)[C@H]1O	0.125 (≈ 0.0735 µM)	0.5 (≈ 0.294 µM)	2 (≈ 1.18 µM)	2 (≈ 1.18 µM)	4 (≈ 2.35 µM)	8 (≈ 4.71 µM)	64 (≈ 37.7 µM)	> 128		2	2	2	2	2	2	2	2	
CC(C)C[C@@H](N)C(=O)N[C@H]1C(=O)N[C@@H](CC(N)=O)C(=O)N[C@H]2C(=O)N[C@H]3C(=O)N[C@H](C(=O)N[C@H](C(=O)NCCc4ccc(-c5ccc(CNC(=N)N)cc5)cc4)c4cc(O)cc(O)c4-c4cc3ccc4O)[C@H](O)c3ccc(c(Cl)c3)Oc3cc2cc(c3O[C@@H]2O[C@H](CO)[C@@H](O)[C@H](O)[C@H]2O[C@H]2C[C@](C)(N)[C@H](O)[C@H](C)O2)Oc2ccc(cc2Cl)[C@H]1O	0.125 (≈ 0.0742 µM)	0.5 (≈ 0.297 µM)	4 (≈ 2.37 µM)	4 (≈ 2.37 µM)	4 (≈ 2.37 µM)	8 (≈ 4.75 µM)	128 (≈ 75.9 µM)	> 128	> 128	2	2	2	2	2	2	2	2	
CN[C@H](CC(C)C)C(=O)N[C@H]1C(=O)N[C@@H](CC(N)=O)C(=O)N[C@H]2C(=O)N[C@H]3C(=O)N[C@H](C(=O)N[C@H](C(=O)O)c4cc(O)cc(O)c4-c4cc3ccc4O)[C@H](O[C@H]3C[C@](C)(N)[C@@H](O)[C@H](C)O3)c3ccc(c(Cl)c3)Oc3cc2cc(c3O[C@@H]2O[C@H](CO)[C@@H](O)[C@H](O)[C@H]2O[C@H]2C[C@](C)(NCc3ccc(-c4ccc(Cl)cc4)cc3)[C@@H](O)[C@H](C)O2)Oc2ccc(cc2Cl)[C@H]1O [ORITAVANCIN]																		MIC [21]: 0.12 µg/mL (≈ 0.0669 µM); MIC (Staphylococcus hominis): 0.12 µg/mL (≈ 0.0669 µM); MIC [18]: 0.06 µg/mL (≈ 0.0335 µM); MIC (Staphylococcus aureus [19]): 0.12 µg/mL (≈ 0.0669 µM); MIC (Enterococcus faecalis): ≤ 0.03 µg/mL; MIC (Enterococcus faecium [22]): ≤ 0.03 µg/mL
